Measured values as given in US9839632B2, “Methods and compositions using 4-amino-2-(2,6-dioxo-piperidine-3-yl)-isoindoline-1,3-dione for treatment and management of central nervous system cancers” (CELGENE CORPORATION, priority 2013, dated 2017).

System: U937 cells cocultured with Raji lymphoma cells
Test: Polarization of U937 cocultured with Raji lymphoma cells with or without YTS NK cells
Assay type: cell-based, human
Conditions: for M2 polarization of U937 cells (FXIIIA, pSTAT6): coculture with Raji lymphoma cells, without NK cells; for polarization status of U937 cells (iNOS, pSTAT1): triple culture with Raji lymphoma cells and YTS NK cells, 10 ug/ml 48 hours
Protocol: Raji lymphoma cells (ATCC), U937 human monocyte cells (ATCC) and YTS NK cells (a gift from Dr. Pamela A. Becker) were cultured at 37° C. in a humidified incubator under 5% CO2 and 95% air in RPMI-1640 supplemented with 20% FCS and 1% penicillin-streptomycin, and 1% nonessential amino acids.
OCI-LY10 lymphoma cells (a gift from Arthur L. Shaffer III) were cultured at 37° C. in a humidified incubator under 5% CO2 and 95% air in IMDM supplemented with 20% FCS and 1% penicillin-streptomycin. Co-culture of lymphoma cells and U937 monocytes: Raji and U937 monocytes were cultured at 37° C. in a humidified incubator under 5% CO2 and 95% air in RPMI-1640 supplemented with 20% FCS and 1% penicillin-streptomycin, and 1% nonessential amino acids. OCI-LY10 and U937 monocytes were cultured at 37° C. in a humidified incubator under 5% CO2 and 95% air in IMDM supplemented with 20% FCS and 1% penicillin-streptomycin. Triple culture of lymphoma cells, U937 monocytes and YTS cells: Raji, U937 and YTS cells were cultured at 37° C. in a humidified incubator under 5% CO2 and 95% air in RPMI-1640 supplemented with 20% FCS and 1% penicillin-streptomycin, and 1% nonessential amino acids. OCI-LY10, U937 and YTS were cultured at 37° C. in a humidified incubator under 5% CO2 and 95% air in IMDM supplemented with 20% FCS and 1% penicillin-streptomycin.
Treatments: In experiments in which IL-4 was used to induce M2 polarization of macrophages, cells were treated with IL-4 (20 ng/ml) for 48 hours followed by treatment with 4-amino-2-(2,6-dioxo-piperidine-3-yl)-isoindoline-1,3-dione (10 ug/ml) or DMSO control for 48 hours. In triple cell culture experiments with lymphoma cells, macrophages, and NK cells, the treatment was with either DMSO or 4-amino-2-(2,6-dioxo-piperidine-3-yl)-isoindoline-1,3-dione (10 ug/ml) for 48 hours.
Immunofluorescence for analysis of macrophage polarization in cell culture experiments: Live cells were fixed in 10% formalin for 30 minutes at room temperature followed by permeabilization with PBS-0.2% Triton X-100 for 2 min. After blocking with PBS-5% goat serum-0.02% Triton X-100 for 30 minutes at 37° C., the cells were incubated overnight at 4° C. with rat monoclonal F4/80 antibody (for primary microglia cells, 1:200 Abcam), rat monoclonal CD11b (for U937, 1:200 Biolegend), rabbit polyclonal Ym1 antibody (for primary microglia cells and primary peritoneal macrophages, 1:200, Stemcell Technologies, Vancouver, Canada), rabbit polyclonal FXIII A antibody (for U937, 1:200, Abcam), mouse monoclonal p-STAT1 antibody (1:200, Abcam), rabbit polyclonal p-STAT6 antibody (1:200, Abcam) or rabbit iNOS antibody (1:200, Calbiochem). […]

[1] = listed as 4-amino-2-(2,6-dioxo-piperidine-3-yl)-isoindoline-1,3-dione

Nc1cccc2c1C(=O)N(C1CCC(=O)NC1=O)C2=O (stereo not shown) [Pomalidomide, 4-amino-2-(2,6-dioxo-piperidine-3-yl)-isoindoline-1,3-dione]
M2 polarization of U937 cells (FXIIIA, pSTAT6): reversed
M2 polarization of U937 cells (FXIIIA, pSTAT6) [1]: prevented the M2 polarization of macrophages but did not induce them into M1 polarization
polarization status of U937 cells (iNOS, pSTAT1): from M2 to M1
polarization status of U937 cells (iNOS, pSTAT1) [1]: became M1-polarized
